{"source": "ChEMBL document CHEMBL3351321", "about": "“Target evaluation of deoxyhypusine synthase from Theileria parva the neglected animal parasite and its relationship to Plasmodium” (Bioorg Med Chem, 2014)", "key": {"Plasmodium falciparum": {"system": "Plasmodium falciparum", "experiment": "Antiplasmodial activity against Plasmodium falciparum 3D7 assessed as inhibition of parasite growth at 5 uM", "format": "functional"}, "Theileria parva": {"system": "Theileria parva", "experiment": "Inhibition of Theileria parva deoxyhypusine synthase expressed in Escherichia coli Rosetta cells assessed as reduction in deoxyhypusine level at 2 uM"}}}
{"compound": "O=[N+]([O-])c1ccc(C=NNc2nc3ccccc3[nH]2)cc1", "values": [{"measurement": "inhibition at 5 µM", "setting": "Plasmodium falciparum", "value": 99, "unit": "%"}, {"measurement": "inhibition", "setting": "Theileria parva", "value": 56, "unit": "%"}]}
{"compound": "Fc1ccc2[nH]c3c(NCCCN4CCOCC4)ncnc3c2c1", "values": [{"measurement": "inhibition at 5 µM", "setting": "Plasmodium falciparum", "value": 98, "unit": "%"}, {"measurement": "inhibition", "setting": "Theileria parva", "value": 23, "unit": "%"}]}
{"compound": "CNCCCNc1ccnc2cc(Cl)ccc12", "values": [{"measurement": "inhibition at 5 µM", "setting": "Plasmodium falciparum", "value": 98, "unit": "%"}, {"measurement": "inhibition", "setting": "Theileria parva", "value": 13, "unit": "%"}]}
